Measured values published in patent US12173349B2, “Lung protease nanosensors and uses thereof” (Massachusetts Institute of Technology, priority 2018, dated 2024).
*1 amine or outer side, *2 acyl side, *3 side chain or, on linkers, in order; H or OH if unused. Where no end group is shown, it is not given here. [ ]: non-standard residue; d: D form. ξ: configuration not given here. +10F = isotope-labelled Phe, +10, O=[13C]([13C@H]([13CH2][13c]1[13cH][13cH][13cH][13cH][13cH]1)[15NH][*:1])[*:2]; ξβ3hPhg(2-NO2) = O=C(CC(N[*:1])c1ccccc1[N+](=O)[O-])[*:2]; FAM = carboxyfluorescein fluorophore label; AF488 = Alexa Fluor 488 fluorophore label; +1A = isotope-labelled Ala, +1; +1F = isotope-labelled Phe, +1; +2G = isotope-labelled Gly, +2; +4A = isotope-labelled Ala, +4

Assays:
[1] = system: 15 proteases in the LUAD protease panel; assay: in vitro recombinant protease screen of FRET-paired substrates; format: biochemical; conditions: fluorescence fold change at 45 minutes; 1 μM substrate, 12.5 nM recombinant enzyme; MP metallo-, SP serine, AP aspartic protease
Source text: Hundreds of peptide sequences have been previously designed and validated as protease substrates, leveraging known catalytic specificities of different protease families, published datasets and substrate sequences in databases like cutDB and MEROPS (Igarashi et al., Nucleic Acids Res 35, D546-549, 2007; Rawlings et al., Nucleic Acids Res 46, D624-D632, 2018). Fourteen of these substrates were nominated in an effort to cover the specificity profiles of metallo-, serine and aspartic endoproteases, all of which were included in the LUAD protease panel, and the catalytic activity of each protease-substrate pair was characterized. Quenched probes that incorporated the 14 peptide substrates were synthesized such that they fluoresce upon proteolytic cleavage to enable real-time monitoring of protease activity in vitro (FIG. 3A and Table 2). Each probe was incubated with each protease in the panel and fluorescence was monitored over 45 minutes. Shown are sample kinetic plots monitoring dequenching of the 14 FRET-paired probes when incubated with (above) and without (below) recombinant matrix metalloproteinase 3 (MMP3) (FIG. 3B). […] See also FIG. 19.
Fluorogenic protease substrates were synthesized by CPC Scientific. Recombinant proteases were purchased from Enzo Life Sciences, R&D Systems and Haematologic Technologies. For recombinant protease assays, fluorogenic substrates PPQ1-14 (1 μM final concentration) were incubated in 30 μL final volume in appropriate enzyme buffer, according to manufacturer specifications, with 12.5 nM recombinant enzyme at 37° C. (FIG. 3). Proteolytic cleavage of substrates was quantified by increases in fluorescence over time by fluorimeter (Tecan Infinite M200 Pro). Enzyme cleavage rates were quantified as relative fluorescence increase over time normalized to fluorescence before addition of protease. Hierarchical clustering was performed in GENE-E, using fluorescence fold changes at 45 minutes.

[2] = system: Kras and p53 mutant lung adenocarcinoma (KP mice); assay: urinary ABN readout and random forest classification in KP lung adenocarcinoma model; format: in vivo
Protocol: To characterize ABN performance in vivo, 14 protease-sensitive ABNs were administered to KP mice and healthy, age and sex-matched controls at 5, 7.5 and 10.5 weeks after tumor initiation. Mouse bladders were voided one hour after intrapulmonary delivery and all fresh urine produced during the subsequent hour (from 60-120 minutes after administration) was pooled and collected. LC-MS/MS was performed and peak area ratios (defined as peak area of urinary reporter divided by peak area of spiked-in internal standard) of protease-sensitive reporters were mean-normalized within each sample to reduce mouse-to-mouse variation.
A random forest classifier was then sought to be built to enable prospective diagnosis of lung cancer in KP mice. Random forest is a high-performance classifier, applicable to a wide variety of classification tasks, that generates a collection of decision trees (a “forest”) that are sampled to produce classification results (Breiman, Machine Learning 45, 5-32, 2001). A random forest classifier was trained using 50% of control mice at 5 weeks, 7.5 weeks and 10.5 weeks, as well as 50% of KP mice at 7.5 weeks (FIG. 6A). The classifier assigned a probability that each mouse belonged to either the KP cohort or the healthy control cohort (FIG. 6B, “Training” panel), achieving perfect separation of control and KP mice. The classifier was then sought to be tested on an independent validation cohort consisting of classifier-naive KP mice at 5 weeks, 7.5 weeks and 10.5 weeks post-induction, as well as the remaining control mice from each time point.
Male B6/SV129 Kras^LSL-G12D/+; Trp53^fl/fl (KP) mice between 18 and 30 weeks old were used for lung adenocarcinoma experiments. Tumors were initiated, as described previously (DuPage et al., Nat Protoc 4, 1064-1072 (2009)), by the intratracheal administration of 50 μL of adenovirus-SPC-Cre (2.5×10^8 PFU in Opti-MEM with 10 mM CaCl2)) under isoflurane anesthesia. […] Tumor growth was monitored by micro computed tomography (microCT) imaging (General Electric) and was scored by a blinded radiation oncologist using MicroView (Parallax Innovations) (Table 4). Tumor volumes were calculated by using the ROI sphere/elliptical tool.
ABN constructs (GluFib-Substrate-PEG-840 kDa) for urinary experiments were synthesized by CPC Scientific (Sunnyvale, CA). ABNs were dosed (50 μL total volume, 20 μM concentration per ABN) by intratracheal intubation, as described above. Bladders were voided 60 minutes after ABN administration and all urine produced 60-120 min after ABN administration was collected using custom tubes in which the animals rest upon 96-well plates that capture urine. Urine was pooled and frozen at −80° C. until analysis by LC-MS/MS.
Liquid chromatography/tandem mass spectrometry was performed by Syneos Health (Princeton, NJ) using a Sciex 6500 triple quadrupole instrument. Briefly, urine samples were treated with UV irradiation to photocleave the ANP linker and liberate the Glu-Fib reporter from residual peptide fragments. Samples were extracted by solid-phase extraction and analyzed by multiple reaction monitoring by LC-MS/MS to quantify concentration of each Glu-Fib mass variant. Analyte quantities were normalized to a spiked-in internal standard and concentrations were calculated from a standard curve using peak area ratio (PAR) to the internal standard. Mean normalization was performed on PAR values to account for mouse-to-mouse differences in ABN inhalation efficiency and urine concentration.
Principal component analysis (PCA) was performed on mean normalized PAR values in the R statistical environment (Team, R.C. R, R Foundation for Statistical Computing, Vienna, Austria, 2017) using the prcomp function. Binary classification was performed using the Caret package (Kuhn, M. caret: Classification and Regression Training. (2017)) in the R statistical environment). […]

[3] = system: P. aeruginosa strain PA01 lung infection; assay: urinary reporter ELISA after intravenous ABNs in bacterial pneumonia model; format: in vivo, mice; conditions: for urine signal in ciprofloxacin-treated versus doxycycline-treated mice / urine signal relative to healthy controls: 24 hours post-infection; for urine signal after ciprofloxacin treatment above baseline: 7 days post-infection, 4 days of ciprofloxacin; for increase in urinary reporter after initiation of infection relative to pre-infection: ABNs injected intravenously 24 hours post infection, urine at 1 hour; for ROC AUC, infected from healthy mice: FIG. 11D, n=9 mice; for ROC AUC, ciprofloxacin treated from pre-treatment signal (Treatment): FIG. 12, 7 days post-infection; for ROC AUC, infected from healthy (Infection): FIG. 12, administered prior to drug treatment; for ROC AUC, effective versus ineffective treatment (doxycycline-treated vs ciprofloxacin-treated): treatment started 5 hours post-infection, ABNs 24 hours post-infection
Source text: Peptide substrates were coupled to 40 kDa 8-arm PEG-MAL via terminal cysteines on each peptide to generate ABNs for use in vivo (Dudani et al., Adv Funct Mater, 26, 2919, 2016; Kwong et al., Proc Natl Acad Sci, 112, 12627, 2015). Each substrate is barcoded with an independent ligand and a biotin on a stable urinary peptide reporter that can be measured by a sandwich ELISA after proteolysis of the substrate, release of the reporter, and clearance into the urine (Warren et al., Proc Natl Acad Sci USA, 111, 3671, 2014; Lin et al., ACS Nano, 0) (FIGS. 11A and 16). The selection of a pair of distinct, ligand-encoded reporters enables simultaneous, multiplexed administration of the two nanosensors. Following initiation of the infection, ABNs were injected intravenously after 24 hours and collected urine an hour after the administration of the nanosensors.
To evaluate whether the presently disclosed ABNs could be used to monitor clearance of infection, PA01 was instilled intratracheally into mice, the pair of ABNs was administered the following day to confirm and set a baseline for infection in each individual, and then antibiotic treatment was initiated with ciprofloxacin, a commonly used broad spectrum antibiotic with activity against gram-negative bacteria, including PA01 (Zeiler et al., Ciprofloxacin, 14, 1986). The diagnostic ABN injection and urine collection was repeated 7 days post-infection (with an interceding 4 days of drug treatment) to determine whether the substrates could monitor recovery from infection following effective antibiotic treatment (FIG. 12A). After ciprofloxacin treatment, LAS urine signal returned to baseline, though ELA remained elevated (1.2-fold and 2.2-fold above baseline, respectively; […]).
Individual responses to antimicrobial treatment can be highly variable, dependent upon the strain of pathogen and the presence of antibiotic resistance, and current clinical tests take 24-72 hours to identify antibiotic susceptibility (Caliendo et al., Clin Infect Dis, 57, S139, 2013). In addition, current clinical tests used to visualize lung infections (e.g., chest X-ray and computed tomography) are often unable to distinguish active infections from those that have been adequately treated until several weeks after antibiotic therapy is complete, because the airspace opacifications characteristic of pneumonia remain apparent on routine radiography screens (Bruns et al., J Gen Intern Med, 25, 203, 2010). Therefore, the ability of the infection-tracking ABNs to identify successful versus insufficient treatment on an acute time-scale shortly after therapeutic initiation was sought to be evaluated. Only 5 hours after establishing lung infections with PA01, antibiotic treatment was initiated with either ciprofloxacin (efficacious against P. aeruginosa) or doxycycline (ineffective against gram-negative bacteria including P. aeruginosa) (FIG. 13A). The following day, multiplexed LAS-E and ELA-E ABNs were administered and urine was collected. […] The persistent Pseudomonas immunostaining observed following ciprofloxacin treatment might be derived from residual Pseudomonas antigens remaining from lysed bacteria that had not yet been cleared by the immune system. Alternatively, the reduced LAS sensor reading in these treated mice could reflect a suppression of LasA secretion from bacteria as they are killed by the potent antibiotic.
All animal studies were approved by Massachusetts Institute of Technology's Committee on Animal Care. For infection studies, 5-7 week old female CD-1 mice were innoculated intratracheally with 1.25×10^6 CFU of P. aeruginosa strain PA01 in 50 μL of PBS. Bacteria were cultured overnight in LB broth, then subcultured and grown to log phase (OD600≈0.5). Bacteria were pelleted, washed with sterile PBS, and then resuspended to the requisite concentration for intratracheal administration. Mice were administered buprenorphine and meloxicam several hours after infection. […]

Row | Substance | protease class(es) cleaving the substrate in vitro [1] | urinary reporter enrichment relative to healthy controls ([2]; KP7.5 wk urine) | urinary reporter enrichment relative to healthy controls ([2]; KP10.5 wk urine) | urine signal in ciprofloxacin-treated versus doxycycline-treated mice [3] | urine signal after ciprofloxacin treatment above baseline [3] | increase in urinary reporter after initiation of infection relative to pre-infection [3] | ROC AUC, infected from healthy mice [3] | ROC AUC, ciprofloxacin treated from pre-treatment signal (Treatment) [3] | ROC AUC, infected from healthy (Infection) [3] | urine signal relative to healthy controls ([3]; ciprofloxacin-treated mice) | urine signal relative to healthy controls ([3]; doxycycline-treated mice) | ROC AUC, effective versus ineffective treatment (doxycycline-treated vs ciprofloxacin-treated) [3]
1 | PP09: ABN: reporter eGVndneeGF(+10F)s(+4A)r, ANP, substrate KPISLISSG, nanocarrier PEG8-40 kDa (chain 1 [dE]GV[dN][dD][dN][dE][dE]GF[+10F][dS][+4A][dR]; also: ANP photolabile linker, PEG8-40 kDa nanocarrier, linkage of reporter, ANP, substrate and carrier not given here) | metalloproteases or both metalloproteases and aspartic proteases | enriched | enriched | – | – | – | – | – | – | – | – | –
2 | ELA-E: elastase substrate with FAM ligand-encoded reporter and biotin (SEQ ID NO: 48), coupled to 40 kDa 8-arm PEG-MAL ([dE]G[dV][dN][dD][dN][dE][dE]G[dF][dF][dS][dA][dR]K(FAM)GGAAFAGC; also: biotin, site not given here, coupled to 40 kDa 8-arm PEG-MAL, site not given here) | – | – | – | not significantly different | 2.2 fold | 2.6 fold | 1.00 | 0.72 | 1.00 | robustly elevated | robustly elevated | 0.536
3 | PP04: ABN: reporter e(+2G)Vndnee(+2G)FFs(+4A)r, ANP, substrate PLGLRSW, nanocarrier PEG8-40 kDa (chain 1 [dE][+2G]V[dN][dD][dN][dE][dE][+2G]FF[dS][+4A][dR][ξβ3hPhg(2-NO2)]; also: ANP photolabile linker joins reporter and substrate, sites not given here, PEG8-40 kDa nanocarrier, site not given here) | SP/MP | – | – | – | – | – | – | – | – | – | – | –
4 | PP10: ABN: reporter e(+2G)(+6V)ndneeG(+10F)(+1F)s(+1A)r, ANP, substrate ILSRIVGGG, nanocarrier PEG8-40 kDa (chain 1 [dE][+2G][+6V][dN][dD][dN][dE][dE]G[+10F][+1F][dS][+1A][dR][ξβ3hPhg(2-NO2)]; also: ANP photolabile linker joins reporter and substrate, sites not given here, PEG8-40 kDa nanocarrier, site not given here) | MP/SP/AP | – | – | – | – | – | – | – | – | – | – | –
5 | LAS-E: LasA substrate with AF488 ligand-encoded reporter and biotin (SEQ ID NO: 46), coupled to 40 kDa 8-arm PEG-MAL ([dE]G[dV][dN][dD][dN][dE][dE]G[dF][dF][dS][dA][dR]K(AF488)GGLGGGAGC; also: biotin, site not given here, coupled to 40 kDa 8-arm PEG-MAL, site not given here) | – | – | – | significantly lower | 1.2 fold | 1.8 fold | 0.86 | 0.88 | 0.92 | – | elevated | 0.893
